{"source": "patent US12371454B2", "about": "“Cyclic peptide compound having Kras inhibitory action” (priority 2019, dated 2025)", "key": {"[1]": {"molecular_target": "T1, Kras and SOS1 (biotin-tagged human Kras loaded with GDP, His-tagged human SOS1) (Homo sapiens, UniProt P01116, G12D)", "T1 construct": "made in house; host or cells: E. coli (stated for Kras only)", "T1 sequence (P01116 1-188 isoform P01116-2 G12D)": "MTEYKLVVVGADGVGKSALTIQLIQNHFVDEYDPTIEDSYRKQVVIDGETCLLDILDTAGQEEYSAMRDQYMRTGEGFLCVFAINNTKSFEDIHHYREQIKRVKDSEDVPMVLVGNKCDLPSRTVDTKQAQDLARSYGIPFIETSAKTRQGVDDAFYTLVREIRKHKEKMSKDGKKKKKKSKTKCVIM", "test": "Protein-protein interaction inhibition between Kras and SOS1 (KrasGl2D-SOS PPI) using AlphaScreen", "type": "binding", "details": "AlphaScreen; biotin-tagged human Kras loaded with GDP, His-tagged human SOS1; read-out: KRAS G12D-SOS PPI IC50", "procedure,_shortened": "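Energy transfer from nickel-chelate donor beads bound to His-SOS1 to streptavidin acceptor beads bound to biotin-Kras, expressed in E. coli and loaded with GDP after purification, was monitored. Donors were excited at 680 nm; singlet oxygen reaching acceptors gave emission read at 520-620 nm.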"}, "[2]": {"system": "Human pancreatic cancer cell line AsPC-1", "test": "Measurement of AsPC-1 cell growth inhibition (AsPC-1 CGI)", "type": "cell-based", "details": "96 h", "procedure,_shortened": "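AsPC-1 cells in 15% FBS RPMI-1640 were exposed to test compound for 96 hours at 37° C, with CellTiter-Glo as endpoint.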"}}, "note": "Starred links: 1 amine or outer side, 2 acyl side, 3 side chain; linkers in the order of their positions; H or OH if unused. Positions of bridges follow the written chain, without caps; N, C: chain ends. Non-standard residues stand in square brackets, D forms with d. Residues, ends and D or L forms follow the SMILES beside them. *: point of attachment. hPhe(3-Cl-4-CF3) = N[C@@H](CCc1ccc(C(F)(F)F)c(Cl)c1)C(=O)O; NMePhe(3-CN) = CN[C@@H](Cc1cccc(C#N)c1)C(=O)O; NMePhe(4-Me) = CN[C@@H](Cc1ccc(C)cc1)C(=O)O; NMedβ3hAla = C[C@H](CC(=O)[*:2])N(C)[*:1]; NMeGly(cPent) = CN[C@H](C(=O)O)C1CCCC1; dαMeGly(allyl) = C=CC[C@@](C)(N)C(=O)O; NMeAla(cPr) = CN[C@@H](CC1CC1)C(=O)O; NMe3Pal = CN[C@@H](Cc1cccnc1)C(=O)O; NMeCha = CN[C@@H](CC1CCCCC1)C(=O)O; NMeChg = CN[C@H](C(=O)O)C1CCCCC1; NMeI = CC[C@H](C)[C@H](NC)C(=O)O; NMeD = CN[C@@H](CC(=O)O)C(=O)O; NMeL = CN[C@@H](CC(C)C)C(=O)O; NEtAla = CCN[C@@H](C)C(=O)O; NMeV = CN[C@H](C(=O)O)C(C)C; d(β3hA) = C[C@@H](N)CC(=O)O; NMeS = CN[C@@H](CO)C(=O)O; NMeA = CN[C@@H](C)C(=O)O; Piperidide = C1CCN(*)CC1; Ac5c = NC1(C(=O)O)CCCC1; Aze = O=C(O)[C@@H]1CCN1; Isopentyl = CC(C)CC*; Sar = CNCC(=O)O", "data": [{"smiles": "CC[C@H](C)[C@@H]1NC(=O)[C@H](CC(C)C)N(C)C(=O)C[C@@H](C(=O)N2CCCCC2)N(C)C(=O)[C@H](C2CCCCC2)N(C)C(=O)C2(CCCC2)NC(=O)[C@@H]2CCCN2C(=O)[C@H](CCc2ccc(C(F)(F)F)c(Cl)c2)NC(=O)CN(C)C(=O)[C@H](CC2CC2)N(C)C(=O)CN(C)C(=O)CN(C)C1=O", "note": "[Compound 234] ([NMeL]I[Sar][Sar][NMeAla(cPr)][Sar][hPhe(3-Cl-4-CF3)]P[Ac5c][NMeChg][NMeD]-Piperidide; lactam N-11)", "values": [{"measurement": "IC50", "setting": "[1]", "value": 2.1, "unit": "nM"}, {"measurement": "IC50", "setting": "[2]", "value": "> 500", "unit": "nM"}]}, {"smiles": "CC[C@H](C)[C@@H]1NC(=O)[C@H](CC(C)C)N(C)C(=O)C[C@@H](C)N(C)C(=O)[C@H](C(C)C)N(C)C(=O)C2(CCCC2)NC(=O)[C@@H]2CCCN2C(=O)[C@H](CCc2ccc(C(F)(F)F)c(Cl)c2)NC(=O)CN(C)C(=O)[C@H](Cc2cccc(C#N)c2)N(C)C(=O)CN(C)C(=O)CN(C)C1=O", "note": "[Compound 238] (cyclo([Ac5c][NMeV][NMedβ3hAla][NMeL]I[Sar][Sar][NMePhe(3-CN)][Sar][hPhe(3-Cl-4-CF3)]P))", "values": [{"measurement": "IC50", "setting": "[1]", "value": 12, "unit": "nM"}, {"measurement": "IC50", "setting": "[2]", "value": "100 to 500", "unit": "nM"}]}, {"smiles": "CC[C@H](C)[C@@H]1NC(=O)[C@H](CC(C)C)N(C)C(=O)C[C@@H](C(=O)N(C)C)N(C)C(=O)[C@H]([C@@H](C)CC)N(C)C(=O)C2(CCCC2)NC(=O)[C@H](Cc2cccnc2)N(C)C(=O)[C@H](CCc2ccc(C(F)(F)F)c(Cl)c2)NC(=O)CN(C)C(=O)[C@H](Cc2ccc(C)cc2)N(C)C(=O)[C@@H]2CCN2C(=O)[C@H](C)N(C)C1=O", "note": "[Compound 243] ([NMeL]I[NMeA][Aze][NMePhe(4-Me)][Sar][hPhe(3-Cl-4-CF3)][NMe3Pal][Ac5c][NMeI][NMeD]-NMe2; lactam N-11)", "values": [{"measurement": "IC50", "setting": "[1]", "value": 0.43, "unit": "nM"}, {"measurement": "IC50", "setting": "[2]", "value": "20 to 50", "unit": "nM"}]}, {"smiles": "CC[C@H](C)[C@@H]1NC(=O)[C@H](C)N(C)C(=O)C[C@@H](C(=O)N2CCCCC2)N(C)C(=O)[C@H](C2CCCC2)N(C)C(=O)C2(CCCC2)NC(=O)[C@@H]2CCCN2C(=O)[C@H](CCc2ccc(C(F)(F)F)c(Cl)c2)NC(=O)CN(C)C(=O)[C@H](CC2CCCCC2)N(C)C(=O)CN(C)C(=O)CN(C)C1=O", "note": "[Compound 246] ([NMeA]I[Sar][Sar][NMeCha][Sar][hPhe(3-Cl-4-CF3)]P[Ac5c][NMeGly(cPent)][NMeD]-Piperidide; lactam N-11)", "values": [{"measurement": "IC50", "setting": "[1]", "value": 0.3, "unit": "nM"}, {"measurement": "IC50", "setting": "[2]", "value": "50 to 100", "unit": "nM"}]}, {"smiles": "CC[C@H](C)[C@@H]1NC(=O)[C@H](CC(C)C)N(C)C(=O)C[C@@H](C(=O)N(C)C)N(C)C(=O)[C@H](C2CCCC2)N(C)C(=O)C2(CCCC2)NC(=O)[C@H](COCCC(C)C)N(C)C(=O)[C@H](CCc2ccc(C(F)(F)F)c(Cl)c2)NC(=O)CN(C)C(=O)[C@H](CC2CCCCC2)N(C)C(=O)[C@@H]2CCN2C(=O)[C@H](C)N(C)C1=O", "note": "[Compound 250] ([NMeL]I[NMeA][Aze][NMeCha][Sar][hPhe(3-Cl-4-CF3)][NMeS](Isopentyl)[Ac5c][NMeGly(cPent)][NMeD]-NMe2; lactam N-11)", "values": [{"measurement": "IC50", "setting": "[1]", "value": 9.8, "unit": "nM"}, {"measurement": "IC50", "setting": "[2]", "value": "100 to 500", "unit": "nM"}]}, {"smiles": "CC[C@H](C)[C@@H]1NC(=O)[C@H](C)N(CC)C(=O)C[C@@H](C)N(C)C(=O)[C@H](C(C)C)N(C)C(=O)C2(CCCC2)NC(=O)[C@@H]2CCCN2C(=O)[C@H](CCc2ccc(C(F)(F)F)c(Cl)c2)NC(=O)CN(C)C(=O)[C@H](CC2CCCCC2)N(C)C(=O)CN(C)C(=O)CN(C)C1=O", "note": "[Compound 264] (cyclo([Ac5c][NMeV][NMedβ3hAla][NEtAla]I[Sar][Sar][NMeCha][Sar][hPhe(3-Cl-4-CF3)]P))", "values": [{"measurement": "IC50", "setting": "[1]", "value": 4.5, "unit": "nM"}, {"measurement": "IC50", "setting": "[2]", "value": "100 to 500", "unit": "nM"}]}, {"smiles": "CC[C@H](C)[C@@H]1NC(=O)[C@H](CC(C)C)N(C)C(=O)C[C@@H](C(=O)N(C)C)N(C)C(=O)[C@H](C2CCCC2)N(C)C(=O)C2(CCCC2)NC(=O)[C@H](C)N(C)C(=O)[C@H](CCc2ccc(C(F)(F)F)c(Cl)c2)NC(=O)CN(C)C(=O)[C@H](CC2CCCCC2)N(C)C(=O)[C@@H]2CCN2C(=O)[C@H](C)N(C)C1=O", "note": "[Compound 274] ([NMeL]I[NMeA][Aze][NMeCha][Sar][hPhe(3-Cl-4-CF3)][NMeA][Ac5c][NMeGly(cPent)][NMeD]-NMe2; lactam N-11)", "values": [{"measurement": "IC50", "setting": "[1]", "value": 0.82, "unit": "nM"}, {"measurement": "IC50", "setting": "[2]", "value": "50 to 100", "unit": "nM"}]}, {"smiles": "CC[C@H](C)[C@@H]1NC(=O)[C@H](CC2CCCCC2)N(C)C(=O)C[C@@H](C)NC(=O)[C@H](C(C)C)N(C)C(=O)C2(CCCC2)NC(=O)[C@@H]2CCCN2C(=O)[C@H](CCc2ccc(C(F)(F)F)c(Cl)c2)NC(=O)CN(C)C(=O)[C@H](CC2CCCCC2)N(C)C(=O)CN(C)C(=O)CN(C)C1=O", "note": "[Compound 285] (cyclo([Ac5c][NMeV][d(β3hA)][NMeCha]I[Sar][Sar][NMeCha][Sar][hPhe(3-Cl-4-CF3)]P))", "values": [{"measurement": "IC50", "setting": "[1]", "value": 52, "unit": "nM"}, {"measurement": "IC50", "setting": "[2]", "value": "100 to 500", "unit": "nM"}]}, {"smiles": "C=CC[C@@]1(C)NC(=O)[C@@H]2CCCN2C(=O)[C@H](CCc2ccc(C(F)(F)F)c(Cl)c2)NC(=O)CN(C)C(=O)[C@H](CC2CCCCC2)N(C)C(=O)CN(C)C(=O)CN(C)C(=O)[C@H]([C@@H](C)CC)NC(=O)[C@H](CC(C)C)N(C)C(=O)C[C@@H](C(=O)N2CCCCC2)N(C)C(=O)[C@H](C(C)C)N(C)C1=O", "note": "[Compound 287] ([NMeL]I[Sar][Sar][NMeCha][Sar][hPhe(3-Cl-4-CF3)]P[dαMeGly(allyl)][NMeV][NMeD]-Piperidide; lactam N-11)", "values": [{"measurement": "IC50", "setting": "[1]", "value": 5.1, "unit": "nM"}, {"measurement": "IC50", "setting": "[2]", "value": "100 to 500", "unit": "nM"}]}]}
